System: L. johnsonii YIT0482 strain
Test: Antibiotic resistance test, L. johnsonii
Format: cell-based, Lactobacillus johnsonii
Procedure: The 11 antibiotics shown in Table 3 were separately added at concentrations of 100, 10, 1, 0.1, and 0 μg/ml, to thereby prepare MRS agar mediums (manufactured by Difco). Subsequently, cell culture solutions of the five bacterial stains (A) and (B) obtained in Production Example 1 (10 μl each) were separately inoculated into the respective antibiotic-containing MRS mediums (the cell number of each bacterial strain: about 1·10^8 cells/ml), followed by smear culture at 37° C. for 48 hours under anaerobic conditions. The proliferated bacteria were evaluated with the naked eye, and the […] for each antibiotic (μg/ml) were calculated.

## Gentamicin
  Resistance of the strain to the antibiotic (in words): excellent specific resistance
